# Measurements taken from patent US20260014170A1, “PRODRUGS FOR DELIVERY OF TE[…] THE CENTRAL NERVOUS SYSTEM” (The Johns Hopkins University, priority 2022, published 2026).
# Legend:
# [1] = female rats, IN, 1.1 mg/kg equivalent of Testosterone, 1h post dose
# Description: All prodrugs were administered intranasally (IN) at a dose of 1.1 mg/kg equivalent of Testosterone using a formulation of 5% Tween-80, 5% DMSO and 90% PBS containing 10 mM HEPES. Blood and brain were collected after sacrificing the animals at predetermined time point. Plasma was harvested from blood by centrifugation at 3,000 RPM for 15 min and stored at −80° C. Brain tissues were harvested following blood collection and immediately snap frozen in liquid nitrogen and stored at −80° C. until LC-MS/MS analysis. Calibration standards were prepared using naïve female rat plasma or brain with additions of respective prodrugs. For quantifying the released testosterone in the pharmacokinetic samples, plasma samples (20 μL) were processed by protein precipitation method by addition of 200 μL of acetonitrile containing internal standard (losartan: 0.5 μM), followed by vortex-mixing for 30 s and then centrifugation at 10,000 RPM for 10 min at 4° C. Brain tissues were diluted 1:5 w/v with acetonitrile containing losartan (0.5 μm) and homogenized, followed by vortex-mixing and centrifugation at 10,000 RPM for 10 min at 4° C. A 50 μL aliquot of the supernatant was diluted with 50 μL of water and transferred to 250 μL polypropylene autosampler vials sealed with teflon caps. Then, 2 μL of the sample was injected into the LC-MS/MS system for analysis.
# The in vivo pharmacokinetics of prodrugs (P1, P3, P4, P5, P6, P7, P8, P9, P10, P11, P12, P13 and P14) were evaluated in female rats.
# [2] = In vitro metabolic stability in rat brain homogenates; type: in vitro ADME; conditions: 10 μM, 37° C., 0 hour to 1 hour, n=3
# Description: In vitro metabolic stability assessment was performed using brain homogenates. For the brain homogenates washed tissues were diluted 10-fold in 0.1-M potassium phosphate buffer and homogenized using a probe sonicator. […] Samples from each incubation at predetermined time points (0, 0.5, and 1h) were quenched with 3X volumes of acetonitrile containing the internal standard (IS; losartan: 0.5 μm). […] Disappearance of the intact compound and release of Testosterone were measured using liquid chromatography tandem mass spectrometry (LC-MS; full scan mode).
# The metabolic stability of prodrugs (n=3) was evaluated using rat brain homogenates. The rat brain was homogenized using 100-mM phosphate buffer with 1:10 dilution (w/v). 10 μM concentration of the compounds was incubated at 37° C. and stability was evaluated from 0 hour to 1 hour. After incubation samples were precipitated using acetonitrile containing internal standard and quantified using high-resolution LC-MS/MS.
SMILES,levels of testosterone release [1],stability in rat brain homogenate [2],plasma levels compared with testosterone [1],stable in brain homogenate [2]
"CC(C)[C@H](N)C(=O)N[C@@H](C(=O)O[C@H]1CC[C@H]2[C@@H]3CCC4=CC(=O)CC[C@]4(C)[C@H]3CC[C@]12C)C(C)C [Prodrug P4, (8R,9S,10R,13S,14S,17S)-10,13-Dimethyl-3-oxo-2,3,6,7,8,9,10,11,12,13,14,15,16,17-tetradecahydro-1H-cyclopenta[α]phenanthren-17-yl L-valyl-D-valinate]",low levels,,,
"CN1CCN(CC(=O)O[C@H]2CC[C@H]3[C@@H]4CCC5=CC(=O)CC[C@]5(C)[C@H]4CC[C@]23C)CC1 [Prodrug P5, (8R,9S,10R,13S,14S,17S)-10,13-Dimethyl-3-oxo-2,3,6,7,8,9,10,11,12,13,14,15,16,17-tetradecahydro-1H-cyclopenta[α]phenanthren-17-yl 2-(4-methylpiperazin-1-yl)acetate]",low levels,stable,,
"C[C@]12CC[C@H]3[C@@H](CCC4=CC(=O)CC[C@@]43C)[C@@H]1CC[C@@H]2OC(=O)CNC(=O)CN [Prodrug P10, (8R,9S,10R,13S,14S,17S)-10,13-Dimethyl-3-oxo-2,3,6,7,8,9,10,11,12,13,14,15,16,17-tetradecahydro-1H-cyclopenta[α]phenanthren-17-yl glycylglycinate]",,moderately stable,,
"CN(C)CC(=O)NCC(=O)NCC(=O)O[C@H]1CC[C@H]2[C@@H]3CCC4=CC(=O)CC[C@]4(C)[C@H]3CC[C@]12C [Prodrug P9, (8R,9S,10R,13S,14S,17S)-10,13-Dimethyl-3-oxo-2,3,6,7,8,9,10,11,12,13,14,15,16,17-tetradecahydro-1H-cyclopenta[α]phenanthren-17-yl dimethylglycylglycylglycinate]",,stable,,
"CN(C)CC(=O)NCC(=O)O[C@H]1CC[C@H]2[C@@H]3CCC4=CC(=O)CC[C@]4(C)[C@H]3CC[C@]12C [Prodrug P8, (8R,9S,10R,13S,14S,17S)-10,13-Dimethyl-3-oxo-2,3,6,7,8,9,10,11,12,13,14,15,16,17-tetradecahydro-1H-cyclopenta[α]phenanthren-17-yl dimethylglycylglycinate]",low levels,stable,,
"CC(=O)N[C@@H](CCC(=O)O[C@H]1CC[C@H]2[C@@H]3CCC4=CC(=O)CC[C@]4(C)[C@H]3CC[C@]12C)C(=O)O [Prodrug P13, (S)-2-Acetamido-5-(((8R,9S,10R,13S,14S,17S)-10,13-dimethyl-3-oxo-2,3,6,7,8,9,10,11,12,13,14,15,16,17-tetradecahydro-1H-cyclopenta[α]phenanthren-17-yl)oxy)-5-oxopentanoic acid]",low levels,stable,,
"CC(C)C[C@H](NC(=O)CN(C)C)C(=O)O[C@H]1CC[C@H]2[C@@H]3CCC4=CC(=O)CC[C@]4(C)[C@H]3CC[C@]12C [Prodrug P11, (8R,9S,10R,13S,14S,17S)-10,13-Dimethyl-3-oxo-2,3,6,7,8,9,10,11,12,13,14,15,16,17-tetradecahydro-1H-cyclopenta[α]phenanthren-17-yl dimethylglycyl-L-leucinate]",,stable,,
"CN(C)CC(=O)O[C@H]1CC[C@H]2[C@@H]3CCC4=CC(=O)CC[C@]4(C)[C@H]3CC[C@]12C [Prodrug P3, (8R,9S,10R,13S,14S,17S)-10,13-Dimethyl-3-oxo-2,3,6,7,8,9,10,11,12,13,14,15,16,17-tetradecahydro-1H-cyclopenta[α]phenanthren-17-yl dimethylglycinate]",,moderately stable,lower,
"CN(C)CC(=O)N[C@@H](Cc1ccccc1)C(=O)O[C@H]1CC[C@H]2[C@@H]3CCC4=CC(=O)CC[C@]4(C)[C@H]3CC[C@]12C [Prodrug P12, (8R,9S,10R,13S,14S,17S)-10,13-Dimethyl-3-oxo-2,3,6,7,8,9,10,11,12,13,14,15,16,17-tetradecahydro-1H-cyclopenta[α]phenanthren-17-yl dimethylglycyl-L-phenylalaninate]",,stable,lower,
"CC(C)OC(=O)OCO[C@H]1CC[C@H]2[C@@H]3CCC4=CC(=O)CC[C@]4(C)[C@H]3CC[C@]12C [Prodrug P1, (((8R,9S,10R,13S,14S,17S)-10,13-Dimethyl-3-oxo-2,3,6,7,8,9,10,11,12,13,14,15,16,17-tetradecahydro-1H-cyclopenta[α]phenanthren-17-yl)oxy)methyl isopropyl carbonate]",,,lower,20%
"C[C@]12CC[C@H]3[C@@H](CCC4=CC(=O)CC[C@@]43C)[C@@H]1CC[C@@H]2OC(=O)CN1CCOCC1 [Prodrug P6, (8R,9S,10R,13S,14S,17S)-10,13-Dimethyl-3-oxo-2,3,6,7,8,9,10,11,12,13,14,15,16,17-tetradecahydro-1H-cyclopenta[α]phenanthren-17-yl 2-morpholinoacetate]",low levels,stable,,
"C[C@]12CC[C@H]3[C@@H](CCC4=CC(=O)CC[C@@]43C)[C@@H]1CC[C@@H]2OC(=O)C(Cl)Cl [Prodrug P7, (8R,9S,10R,13S,14S,17S)-10,13-Dimethyl-3-oxo-2,3,6,7,8,9,10,11,12,13,14,15,16,17-tetradecahydro-1H-cyclopenta[α]phenanthren-17-yl 2,2-dichloroacetate]",,moderately stable,,
"C[C@]12CC[C@H]3[C@@H](CCC4=CC(=O)CC[C@@]43C)[C@@H]1CC[C@@H]2OC(=O)CC[C@H](N)C(=O)O [Prodrug P14, (S)-2-Amino-5-(((8R,9S,10R,13S,14S,17S)-10,13-dimethyl-3-oxo-2,3,6,7,8,9,10,11,12,13,14,15,16,17-tetradecahydro-1H-cyclopenta[α]phenanthren-17-yl)oxy)-5-oxopentanoic acid]",low levels,stable,,
